Read-outs that look alike come from different tables or passages of the source.
Key:
[1] = system: cancer cell lines encoding B-Raf V600E mutation; experiment: 3 day proliferation assay, panel of 22 cancer cell lines encoding B-Raf V600E; type: cell-based; conditions: count of cell lines of the panel of 22
A375P F11s = experiment: Dose dependent tumor inhibition, A375P F11s subcutaneous xenograft; type: in vivo, athymic mice; design: key: −: indicates no response; +: indicates growth delay (1-2× doubling); ++: indicates growth delay (>2× doubling); +++: indicates stable disease; ++++: indicates partial regression; +++++: indicates complete regression; conditions: oral, 14-day period
Experimental: A375P F11s were cultured in RPMI 1640 medium supplemented with 10% fetal bovine serum, 1% Penicillin-streptomycin and 1% sodium pyruvate. Tumor cells (2×10^6 A375P F11s) were implanted subcutaneously into the right flank of athymic mice on Day 1. To facilitate their growth, A375P F11s cells were suspended in Matrigel diluted 1:1 in phosphate-buffered saline before implantation. When tumors had reached approximately 200 mm^3 in volume (Day 19-22), tumor-bearing mice were randomized into study groups (n=7 or 8). Animals were dosed orally once or twice daily for a 14-day period. […] Tumor growth was measured twice a week using calipers for the duration of the study. Tumor volumes were calculated as a product of (length×width×width)/2 and median values were used to compare groups. Complete regressions (CR) were defined as three consecutive tumor measurements of ≦13.5 mm^3. Partial regressions were defined as three consecutive measurements of ≦50% of starting tumor volume. Tumor growth delay was defined as the difference in time taken for treated and control groups to reach 1000 mm^3 (T-C1000).

[2] = biological target: T1, His6-tagged BRAFV600E full-length (amino acids 2-766) (Homo sapiens, UniProt P15056, V600E); experiment: biochemical; type: biochemical
T1 construct: BRAFV600E full-length (amino acids 2-766); His6; made in house
T1 sequence (P15056 2-766 V600E): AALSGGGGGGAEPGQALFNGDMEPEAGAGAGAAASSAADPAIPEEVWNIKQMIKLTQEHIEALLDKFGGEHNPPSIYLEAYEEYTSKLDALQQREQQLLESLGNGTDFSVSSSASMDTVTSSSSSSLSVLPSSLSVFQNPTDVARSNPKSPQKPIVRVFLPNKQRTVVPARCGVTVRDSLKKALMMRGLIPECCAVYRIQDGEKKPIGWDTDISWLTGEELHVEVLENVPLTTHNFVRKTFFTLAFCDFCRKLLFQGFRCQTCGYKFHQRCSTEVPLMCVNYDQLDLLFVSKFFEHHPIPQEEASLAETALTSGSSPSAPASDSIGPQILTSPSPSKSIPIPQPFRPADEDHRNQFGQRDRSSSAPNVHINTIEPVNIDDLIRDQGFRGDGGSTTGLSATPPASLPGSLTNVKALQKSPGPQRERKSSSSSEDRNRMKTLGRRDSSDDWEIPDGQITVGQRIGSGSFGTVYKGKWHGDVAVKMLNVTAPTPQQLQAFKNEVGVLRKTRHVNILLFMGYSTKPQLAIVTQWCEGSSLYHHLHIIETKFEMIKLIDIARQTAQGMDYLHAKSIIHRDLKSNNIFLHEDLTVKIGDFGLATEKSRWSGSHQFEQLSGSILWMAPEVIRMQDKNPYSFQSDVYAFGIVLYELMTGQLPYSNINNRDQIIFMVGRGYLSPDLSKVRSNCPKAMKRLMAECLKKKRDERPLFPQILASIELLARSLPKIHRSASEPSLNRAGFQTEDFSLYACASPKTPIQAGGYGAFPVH
Experimental: Compounds of the present invention were tested for B-Raf protein serine kinase inhibitory activity in a B-Raf Accelerated MEK ATPase assay (BRAMA). […] The BRAMA assay is a high sensitivity assay which measures an intrinsic MEK-mediated ATP hydrolysis uncoupled from downstream ERK phosphorylation by coupling the formation of ADP to NADH oxidation through the enzymes pyruvate kinase and lactate dehydrogenase. When ADP production is initiated by addition of catalytic amounts of an activated Raf enzyme and non-phosphorylated MEK, one observes robust ADP production concomitant with Raf-mediated phosphorylation of MEK. The method is disclosed in: C. Rominger, M. Schaber, E. May. Assay for B-Raf Activity Based on Intrinsic MEK ATPase Activity.

[3] = system: Human colon tumor cells (Colo205); experiment: Cell growth inhibition assay (CellTiter-Glo), Colo205; type: cell-based; conditions: COLO 205, 72 h, 3 days incubation
Experimental: Human colon tumor cells (Colo205) were cultured in RPMI (Mediatech 50-020-PB) containing 10% FBS and 1% penicillin-streptomycin.
The next day, compounds were diluted as follow: For 96-well assays, 13.5 μL of compound in DMSO were diluted using nine (9) serial 1:3 dilutions of 4.5 μL in 9 μL of DMSO. Medium (270 μL/well of RPMI with 10% FBS and 1% penicillin-streptomycin) was added to the plates. Aliquots (7 μL) were added to cells in the final assay giving a final DMSO concentration of 0.2%. For 384-well assays, 15 μL of compound in DMSO were diluted using nine (9) serial 1:3 dilutions of 5 μL in 10 μL of DMSO, followed by a further dilution of 5 μL of compound with 95 μL of medium, of which 2 μL were added to cells in the final assay giving a final DMSO concentration of 0.2%. Cells were incubated at 37° C., 5% CO2 for 3 days.
Total ATP was measured (as a surrogate estimate of cell number) using CellTiter-Glo® reagent (Promega G7571). Briefly, plates were removed from the incubator and allowed to equilibrate to room temperature for 30 minutes. CellTiter-Glo® (25 μL or 55 μL for 384-well or 96-well assays, respectively) reagent was added to each well and plates were shaken on an orbital plate shaker for 2 minutes. Plates were incubated without shaking for a further 30 minutes and read on an LJL Analyst GT reader in luminometer mode with an integration time of 0.5 seconds per well. Percent inhibition of cell growth was calculated relative to DMSO vehicle-treated control wells.

[4] = system: Human melanoma cancer cells (SK-MEL-28); experiment: Cell growth inhibition assay (CellTiter-Glo), SK-MEL-28; type: cell-based; conditions: SK-MEL-28, 72 h, 3 days incubation
[5] = Table 1a, highest pIC50 for the one or more runs
[6] = Table 1a, highest pIC50 for the one or more runs, read-out: B-Raf Activity
[7] = Table 1b (later runs), average pIC50 for the one or more runs, read-out: B-Raf plC50
[8] = Table 2a, read-out: Activity in Colo205 Tumor Cells
[9] = Table 2b (later runs), average for the one or more runs, read-out: IC50 for Colo205
[10] = Table 3a, read-out: Activity in SK-MEL-28 Tumor Cells
[11] = Table 3b (later runs), average for the one or more runs, read-out: IC50 for SK-MEL-28

With `CC(C)(C)c1nc(-c2cccc(NS(=O)(=O)c3c(F)cccc3F)c2F)c(-c2ccnc(N)n2)s1` [Example 58a, N-{3-[5-(2-Amino-4-pyrimidinyl)-2-(1,1-dimethylethyl)-1,3-thiazol-4-yl]-2-fluorophenyl}-2,6-difluorobenzenesulfonamide] the “cancer cell lines encoding B-Raf V600E not sensitive (gIC50>1000M)” value [1] was 4 out of 22, the “cancer cell lines encoding B-Raf V600E with intermediate response (gIC50≧100 nM and <1000 nM)” value [1] was 2 out of 22 and the Response (A375P F11s; 1 mg/kg qd) was “+”. The Response (A375P F11s; 10 mg/kg qd) was “++ (+)”, the Response (A375P F11s; 100 mg/kg bid) was “++++ (+)” and the Response (A375P F11s; 100 mg/kg qd) was “++++ (+)”. The Response (A375P F11s; 300 mg/kg bid) was “++++ (+)” and the Response (A375P F11s; 300 mg/kg qd) was “++++ (+)”.
With `CC(C)c1nc(-c2ccc(F)c(NS(=O)(=O)c3c(F)cccc3F)c2)c(-c2ccnc(NCCN3CCOCC3)n2)s1` [Example 165] the “B-Raf Activity” value [2, 5] was “++ (indicates at least one pIC50 measurement greater than 6 against B-Raf but no measurement greater than pIC50 of 7)”.
`CC(C)c1nc(-c2ccc(F)c(NS(=O)(=O)c3c(F)cccc3F)c2)c(-c2ccnc(NCCOCCO)n2)s1` [Example 166] was tested, and the “B-Raf Activity” value [2, 5] was “++ (indicates at least one pIC50 measurement greater than 6 against B-Raf but no measurement greater than pIC50 of 7)”.
With `CC(C)c1nc(-c2ccc(F)c(NS(=O)(=O)c3c(F)cccc3F)c2)c(-c2ccnc(NCCCCN(C)C)n2)s1` [Example 167] the “B-Raf Activity” value [2, 5] was “++ (indicates at least one pIC50 measurement greater than 6 against B-Raf but no measurement greater than pIC50 of 7)”.
`COCCCNc1nccc(-c2sc(C(C)C)nc2-c2ccc(F)c(NS(=O)(=O)c3c(F)cccc3F)c2)n1` [Example 168] was tested, and the “B-Raf Activity” value [2, 5] was “++ (indicates at least one pIC50 measurement greater than 6 against B-Raf but no measurement greater than pIC50 of 7)”.
For `CC(C)c1nc(-c2cccc(NS(=O)(=O)c3cc(F)ccc3F)c2F)c(-c2ccnc(NCCCNS(C)(=O)=O)n2)s1` [Example 195], the IC50 [2, 6] was under 0.1 µM, the IC50 [2, 7] was at most 0.00316 µM and the IC50 [3, 8] was under 0.1 µM. It also gave an IC50 [3, 9] of under 0.1 µM, an IC50 [4, 10] of under 0.1 µM and an IC50 [4, 11] of under 0.1 µM.
`CC(C)c1nc(-c2cccc(NS(=O)(=O)c3cc(F)ccc3F)c2F)c(-c2ccnc(NCCCNC(=O)CO)n2)s1` [Example 196] was tested, and the IC50 [2, 6] was under 0.1 µM, the IC50 [2, 7] was at most 0.00316 µM and the IC50 [3, 8] was under 0.1 µM. The IC50 [3, 9] was under 0.1 µM, the IC50 [4, 10] was under 0.1 µM and the IC50 [4, 11] was under 0.1 µM.

From patent US8642759B2, “Benzene sulfonamide thiazole and oxazole compounds” (GlaxoSmithKline LLC, priority 2008, dated 2014)
